From patent publication US8394758B2, “Tumor-targeting peptides and uses thereof” (Academia Sinica, priority 2008, dated 2013) come the findings set out here.

In data set [1] the test system is H460 cells (lung cancer) xenografts. The data set is described as follows: In vivo homing of phage clones to lung cancer xenografts, alone or with synthetic peptide (phage titer). Further details: species or system SCID mice. The following applies: 100 μg synthetic peptide co-injected. As to the method:
Eight minutes after the injection, the phage-treated SCID mice were perfused with 50 ml PBS to wash away phage particles unbound to tissues. Normal organs (e.g., lung, heart, brain) and tumor mass were removed from the mice, weighed, washed with PBS, and homogenized to release tissue-bound phage particles, if any. The released phage particles were titered using bacterium ER2738 (New England BioLabs, MA, USA) grown on IPTG-X-gal-containing agar plates, and amplified in the same bacterium following the manufacturer's protocol.
H460 cells (a lung cancer cell line) were injected subcutaneously (s.c.) into the dorsolateral flanks of SCID mice (4-6 weeks of age) to form lung cancer xenografts. Each of phage clones IVO 2, IVO 8, and IVO 24, displaying peptide SVSVGMKPSPRP (SEQ ID NO:1), SNPFSKPYGLTV (SEQ ID NO:3), and YPHYSLPGSSTL (SEQ ID NO:5), respectively, was injected (i.v.) into the tail veins of the mice bearing the xenografts (˜100 mm^3), either alone or with 100 μg synthetic peptides SVSVGMKPSPRP (SEQ ID NO:1), SNPFSKPYGLTV (SEQ ID NO:3), or YPHYSLPGSSTL (SEQ ID NO:5). Normal organs and tumor mass were removed from these mice and processed as described in Example 1 above. The phage titers in the normal organs and tumor mass were determined following the procedure also described in Example 1.

The subject of data set [2] is lung tumor xenografts, tumor neovasculature. Briefly: Immuno-staining of phage (anti-M13) and blood vessels (anti-CD31) in lung tumor xenografts and normal organs. The format is in vivo, SCID mice. The source says:
The accumulation of the phage clones in tumor mass was further examined by an immuno-staining assay, using an anti-M13 phage monoclonal antibody (Amersham Biosciences, Uppsala, Sweden). Briefly, after injection of the phage clones, normal organ samples and tumor samples were obtained, each divided into two parts. Bound phage particles were released from one part of the samples and titered using bacterium ER2738. The other part of each of the samples was embedded in Optimal Cutting Temperature (OCT, Tissue-Tek, NL, USA). The OCT-embedded samples (frozen) were sectioned (5 micron) and transferred to cold PBS. The sections were fixed with acetone-methanol (1:1) on slides, washed with PBS, and immersed in a blocking buffer (1% BSA in PBS) for 1 h. Then, the slides were incubated with rat anti-mouse CD31 antibody (an antibody recognizing blood vessels; BD Pharmingen, MA, USA.) and rabbit anti-rat Ig antibody (Stressgen, Canada), and immersed in Rhodamine labeled goat anti-rabbit Ig antibody (Jackson ImmunoResearch, PA, USA). The slides were further incubated with mouse anti-M13 phage monoclonal antibody (Amersham Biosciences, Uppsala, Sweden), then with FITC-labeled goat anti-mouse Ig antibody (Jackson ImmunoResearch, PA, USA), and finally immersed in a solution containing Hoechst 33258 (Molecular Probe, OR, USA). After being washed and mounted with a mounting medium (Vector, Calif., USA), the slides were examined under a Leica Confocal Microscope (TCS-SP5-AOBS). Images of the slides were processed with the Leica Application Suite Advanced Fluorescence software.

For a further data set, the system named is tumor xenografts. The data set is described as follows: Histopathology of tumor tissues by H&E staining. The data set is classed as in vivo, SCID mice. The following applies: doxorubicin 1 mg/kg twice a week for four weeks.
In data set [3] the test system is Non-small cell lung cancer xenografts. The data set is described as follows: Doxorubicin levels in tumor tissue and tumor cell nuclei (spectrofluorometry). The data set is classed as in vivo, SCID mice. The following applies: 2 mg/kg doxorubicin. How it is done:
Non-small cell lung cancer xenografts (˜300 mm^3) were induced in SCID mice following the method described in Example 2 above. These mice were treated with PIVO-2-LD, PIVO-8-LD, PIVO-24-LD, LD, and FD at a doxorubicin dose of 2 mg/kg and sacrificed 1 h, 4 h, or 24 h later. Blood samples were collected from the mice via submaxillary punctures and plasma samples were prepared therefrom. In addition, xenografts and normal organs were removed, part of them being homogenized to isolate cell nuclei. Doxorubicin was extracted either from the tumor tissue or from the nuclei following the method described in Laginha et al., Clin. Cancer Res. 11:6944-6949, 2005 and Mayer et al., J. Pharmacol. Exp. Ther. 280:1406-1414, 1997. The amount of doxorubicin was determined by spectrofluorometry at λex 485/20 nm and λcm 645/40 nm (Synergy HT Multi-Detection Microplate Reader, BioTek Instruments, Winooski, Vt. 05404 USA). Based on the amounts of doxorubicin in tumor tissues at different time points, concentration-time curves of doxorubicin were prepared and the areas under the curves from 0-48 hours (AUC0-48 hours) were determined.

Consider SVSVGMKPSPRP (Tumor-Targeting Peptide), for which the “inhibition by synthetic peptide of accumulation in tumor mass of the phage clone displaying the same peptide” value (“inhibition by synthetic peptide” for short) in data set [1] is on record as “inhibited accumulation of phage clone IVO 2”. Also, the “blocking by synthetic peptide of binding of the corresponding phage clone to lung tumor tissues” value (from here on “blocking by synthetic peptide”) in data set [2] is listed as “blocked binding”.
Turning to `COc1cccc2c1C(=O)c1c(O)c3c(c(O)c1C2=O)C[C@@](O)(C(=O)CO)C[C@@H]3O[C@H]1C[C@H](N)[C@H](O)[C@H](C)O1` [FD, doxorubicin], in the data set on tumor xenografts, the “necrotic/apoptotic area (combined) in tumor xenografts” value is reported as “only a moderate necrotic/apoptotic area”. Further, the “Nucleus (AUC0-48 h) doxorubicin” value in data set [3] (tumor cell nuclei (bioavailable doxorubicin)) was 3.68 µg·h/g. For the same compound, the “Tumor (AUC0-48 h) doxorubicin” value in data set [3] (tumor tissue) came out at 10.23 µg·h/g.
Take YPHYSLPGSSTL (Tumor-Targeting Peptide): the “inhibition by synthetic peptide” value in data set [1] was “inhibited accumulation”. Besides, the “blocking by synthetic peptide” value in data set [2] was “blocked binding”.
With SNPFSKPYGLTV (Tumor-Targeting Peptide), in data set [1], the “inhibition by synthetic peptide” value is recorded as “inhibited accumulation”. For the same compound, in data set [2], the “blocking by synthetic peptide” value was “blocked binding”.
